*1 amine or outer side, *2 acyl side, *3 side chain or, on linkers, in order; H or OH if unused. Where a SMILES comes first, the peptide text is derived from it. [ ]: non-standard residue; d: D form. The star is where a group is joined. ξ: configuration not given here. Phac(3-amino) = O=C(Cc1cccc(N[*:1])c1)[*:2]; Leu(4,5-dehydro) = C=C(C)C[C@H](N)C(=O)O; X2 = O=C(/C=C/c1ccc(N[*:1])cc1)[*:2]; NH(2,6-Me2-phenyl) = Cc1cccc(C)c1N*; X1 = O=C(Cc1ccc(N[*:1])cc1)[*:2]; Ile(3ξ) = CCC(C)[C@H](N)C(=O)O; X4 = O=C(Cc1ccccc1N[*:1])[*:2]; NH(2-Me-phenyl) = Cc1ccccc1N*; Isovaleryl = CC(C)CC(=O)*; Nle = CCCC[C@H](N)C(=O)O; Dap = NC[C@H](N)C(=O)O; CO = O=C([*:1])[*:2]; Butyryl = CCCC(=O)*; X10 = Brc1ccccc1N*
Each molecule was assayed against Integrin alpha-4/beta-1 (Homo sapiens, UniProt P05556+P13612, T112H) (assay: Jurkat Cell Adhesion Inhibition Assay). Conditions: not given.
Experimental: Binding affinities (IC50) of the ligands were studied in a Jurkat cell adhesion assay by inhibiting the alpha-4/beta-1 mediated cell adhesion to CS-1 peptides. The 96-well plates were coated with neutravidin, followed by biotinconjugated CS-1 peptides. Jurkat cells with series dilutions of tested ligands in binding buffer were added and allowed to bind for 30 min. Bound cells were recorded using a 96-well plate reader at 570 nm. IC50 values were calculated from inhibition curves resulting from the concentration-dependent inhibition

In order of rising IC50:
1. C=C(C)C[C@H](NC(=O)Cc1ccc(NC(=O)Nc2ccccc2C)cc1)C(=O)N[C@@H](CC(=O)O)C(=O)N[C@H](C(=O)N1CCC[C@H]1C(N)=O)C(C)CC (stereo partly drawn) [(3S)-3-{[(2S,3S)-1-[(2S)-2-carbamoylpyrrolidin-1-yl]-3-methyl-1-oxopentan-2-yl]carbamoyl}-3-[(2S)-4-methyl-2-[1-(4-{[(2-methylphenyl)carbamoyl]amino}phenyl)acetamido]pent-4-enamido]propanoic acid] ({NH(2-Me-phenyl)-CO}-[X1][Leu(4,5-dehydro)]D[Ile(3ξ)]P-NH2)  2.8 nM
2. CCCC[C@H](NC(=O)/C=C/c1ccc(NC(=O)Nc2ccccc2C)cc1)C(=O)N[C@@H](CC(=O)O)C(=O)N[C@H](C(=O)N1CCC[C@H]1C(N)=O)C(C)CC (stereo partly drawn) [(3S)-3-{[(2S,3S)-1-[(2S)-2-carbamoylpyrrolidin-1-yl]-3-methyl-1-oxopentan-2-yl]carbamoyl}-3-[(2S)-2-[(2E)-3-(4-{[(2-methylphenyl)carbamoyl]amino}phenyl)prop-2-enamido]hexanamido]propanoic acid] ({NH(2-Me-phenyl)-CO}-[X2][Nle]D[Ile(3ξ)]P-NH2)  4.4 nM
3. CCCC[C@H](NC(=O)Cc1ccc(NC(=O)Nc2ccccc2Br)cc1)C(=O)N[C@@H](CC(=O)O)C(=O)N[C@H](C(=O)N1CCC[C@H]1C(N)=O)C(C)CC (stereo partly drawn) [(3S)-3-[(2S)-2-[1-(4-{[(2-bromophenyl)carbamoyl]amino}phenyl)acetamido]hexanamido]-3-{[(2S,3S)-1-[(2S)-2-carbamoylpyrrolidin-1-yl]-3-methyl-1-oxopentan-2-yl]carbamoyl}propanoic acid] ({X10-CO}-[X1][Nle]D[Ile(3ξ)]P-NH2)  4.8 nM
4. CCCC[C@H](NC(=O)Cc1ccc(NC(=O)Nc2c(C)cccc2C)cc1)C(=O)N[C@@H](CC(=O)O)C(=O)N[C@H](C(=O)N1CCC[C@H]1C(N)=O)C(C)CC (stereo partly drawn) [(3S)-3-{[(2S,3S)-1-[(2S)-2-carbamoylpyrrolidin-1-yl]-3-methyl-1-oxopentan-2-yl]carbamoyl}-3-[(2S)-2-[1-(4-{[(2,6-dimethylphenyl)carbamoyl]amino}phenyl)acetamido]hexanamido]propanoic acid] ({NH(2,6-Me2-phenyl)-CO}-[X1][Nle]D[Ile(3ξ)]P-NH2)  7.2 nM
5. CCC(C)[C@H](NC(=O)[C@H](CC(=O)O)NC(=O)[C@H](CNC(=O)CC(C)C)NC(=O)Cc1ccc(NC(=O)Nc2ccccc2C)cc1)C(=O)N1CCC[C@H]1C(N)=O (stereo partly drawn) [(3S)-3-{[(2S,3S)-1-[(2S)-2-carbamoylpyrrolidin-1-yl]-3-methyl-1-oxopentan-2-yl]carbamoyl}-3-[(2S)-3-(3-methylbutanamido)-2-[1-(4-{[(2-methylphenyl)carbamoyl]amino}phenyl)acetamido]propanamido]propanoic acid] ({NH(2-Me-phenyl)-CO}-[X1][Dap](Isovaleryl)D[Ile(3ξ)]P-NH2)  63 nM
6. CCCC(=O)NC[C@H](NC(=O)Cc1ccc(NC(=O)Nc2ccccc2C)cc1)C(=O)N[C@@H](CC(=O)O)C(=O)N[C@H](C(=O)N1CCC[C@H]1C(N)=O)C(C)CC (stereo partly drawn) [(3S)-3-[(2S)-3-butanamido-2-[1-(4-{[(2-methylphenyl)carbamoyl]amino}phenyl)acetamido]propanamido]-3-{[(2S,3S)-1-[(2S)-2-carbamoylpyrrolidin-1-yl]-3-methyl-1-oxopentan-2-yl]carbamoyl}propanoic acid] ({NH(2-Me-phenyl)-CO}-[X1][Dap](Butyryl)D[Ile(3ξ)]P-NH2)  138 nM
7. CCCC[C@H](NC(=O)Cc1cccc(NC(=O)Nc2ccccc2C)c1)C(=O)N[C@@H](CC(=O)O)C(=O)N[C@H](C(=O)N1CCC[C@H]1C(N)=O)C(C)CC (stereo partly drawn) [(3S)-3-{[(2S,3S)-1-[(2S)-2-carbamoylpyrrolidin-1-yl]-3-methyl-1-oxopentan-2-yl]carbamoyl}-3-[(2S)-2-[1-(3-{[(2-methylphenyl)carbamoyl]amino}phenyl)acetamido]hexanamido]propanoic acid] ({NH(2-Me-phenyl)-CO}-[Phac(3-amino)][Nle]D[Ile(3ξ)]P-NH2)  140 nM
8. CCCC[C@H](NC(=O)Cc1ccccc1NC(=O)Nc1ccccc1C)C(=O)N[C@@H](CC(=O)O)C(=O)N[C@H](C(=O)N1CCC[C@H]1C(N)=O)C(C)CC (stereo partly drawn) [(3S)-3-{[(2S,3S)-1-[(2S)-2-carbamoylpyrrolidin-1-yl]-3-methyl-1-oxopentan-2-yl]carbamoyl}-3-[(2S)-2-[1-(2-{[(2-methylphenyl)carbamoyl]amino}phenyl)acetamido]hexanamido]propanoic acid] ({NH(2-Me-phenyl)-CO}-[X4][Nle]D[Ile(3ξ)]P-NH2)  3000 nM

Same assay, conditions: pH 7.5; 22 °C

In order of rising IC50:
1. CCCC[C@H](NC(=O)Cc1ccc(NC(=O)Nc2ccccc2C)cc1)C(=O)N[C@@H](CC(=O)O)C(=O)N[C@H](C(=O)N1CCCC[C@H]1C(N)=O)C(C)CC (stereo partly drawn) [(3S)-3-{[(2S,3S)-1-[(2S)-2-carbamoylpiperidin-1-yl]-3-methyl-1-oxopentan-2-yl]carbamoyl}-3-[(2S)-2-[1-(4-{[(2-methylphenyl)carbamoyl]amino}phenyl)acetamido]hexanamido]propanoic acid]  1.4 nM
2. CCCC[C@H](NC(=O)Cc1ccc(NC(=O)Nc2ccccc2C)cc1)C(=O)N[C@@H](CC(=O)O)C(=O)N[C@H](C(=O)N1CCCC[C@@H]1C(N)=O)C(C)CC (stereo partly drawn) [(3S)-3-{[(2S,3S)-1-[(2R)-2-carbamoylpiperidin-1-yl]-3-methyl-1-oxopentan-2-yl]carbamoyl}-3-[(2S)-2-[1-(4-{[(2-methylphenyl)carbamoyl]amino}phenyl)acetamido]hexanamido]propanoic acid]  3 nM
3. CCCC[C@H](NC(=O)Cc1ccc(NC(=O)Nc2ccccc2C)cc1)C(=O)N[C@@H](CC(=O)O)C(=O)N[C@H](C(=O)N1CC(O)C[C@H]1C(N)=O)C(C)CC (stereo partly drawn) [(3S)-3-{[(2S,3S)-1-[(2S)-2-carbamoyl-4-hydroxypyrrolidin-1-yl]-3-methyl-1-oxopentan-2-yl]carbamoyl}-3-[(2S)-2-[1-(4-{[(2-methylphenyl)carbamoyl]amino}phenyl)acetamido]hexanamido]propanoic acid]  3 nM
4. CCCC[C@H](NC(=O)Cc1ccc(NC(=O)Nc2ccccc2C)cc1)C(=O)N[C@@H](CC(=O)O)C(=O)N[C@H](C(=O)N1CSC[C@@H]1C(N)=O)C(C)CC (stereo partly drawn) [(3S)-3-{[(2S,3S)-1-[(4S)-4-carbamoyl-1,3-thiazolidin-3-yl]-3-methyl-1-oxopentan-2-yl]carbamoyl}-3-[(2S)-2-[1-(4-{[(2-methylphenyl)carbamoyl]amino}phenyl)acetamido]hexanamido]propanoic acid]  3.2 nM
5. CCCC[C@H](NC(=O)Cc1ccc(NC(=O)Nc2ccccc2C)cc1)C(=O)N[C@@H](CC(=O)O)C(=O)N[C@H](C(=O)Nc1cccc(C(N)=O)c1)C(C)CC (stereo partly drawn) [(3S)-3-{[(1S,2S)-1-[(3-carbamoylphenyl)carbamoyl]-2-methylbutyl]carbamoyl}-3-[(2S)-2-[1-(4-{[(2-methylphenyl)carbamoyl]amino}phenyl)acetamido]hexanamido]propanoic acid]  3.3 nM
6. CCCC[C@H](NC(=O)Cc1ccc(NC(=O)Nc2ccccc2C)cc1)C(=O)N[C@@H](CC(=O)O)C(=O)N[C@H](C(=O)N1CCCC(C(N)=O)C1)C(C)CC (stereo partly drawn) [(3S)-3-{[(2S,3S)-1-(3-carbamoylpiperidin-1-yl)-3-methyl-1-oxopentan-2-yl]carbamoyl}-3-[(2S)-2-[1-(4-{[(2-methylphenyl)carbamoyl]amino}phenyl)acetamido]hexanamido]propanoic acid]  4 nM

From BindingDB's records for doi:10.1002/bip.20588 (University of California Davis, 2006)
